According to patent US20180271097A1, “HETEROCYCLIC TRIFLUOROALKENYL COMPOUNDS HAVING A NEMATOCIDAL ACTIVITY, THEIR AGRONOMIC COMPOSITIONS AND USE THEREOF” (ISAGRO S.P.A., priority 2015, published 2018):

Legend:
Meloidogyne spp. [1] = assay: Nematocidal activity against Meloidogyne spp., application 7 days before transplantation (tomato in pots); format: in vivo; conditions: tomatoes, 4,000 g/hectare, treatment 7 days before transplantation; for Root development: 60 days after transplantation, 100% = development of comparative healthy root; for Height of plant (cm) / Gall index (scale 0-10): assessment 60 days after transplantation; for Gall index (scale 0-10): Bridge and Page scale, 0 = 0% affected root, 10 = 100% infested root
Method: Determination of the Nematocidal Activity Against Meloidogyne Spp. (Application 7 Days Before Transplantation)
(§1) The tests, aimed at testing the nematocidal activity of the product under consideration, were carried out using inocula taken from a breeding of Meloidogyne spp. maintained on tomato and tobacco plants in pots and grown in a greenhouse.
(§2) In order to perform the experiments, portions of roots having a large number of galls, and ground, in which larvae are present, starting from the second stage of age, were collected from the infested pots.
(§3) New pots having a diameter of 15 cm were half-filled with sterile earth. The portions of infested roots, previously cleaned, were positioned on the same in order to correctly evaluate the degree of infestation and ensure that each pot contained the same nematic charge. 200-300 g of infested earth were then added and subsequently covered with a thin layer of sterile earth.
(§4) The treatment was effected by pouring, onto the surface of the ground, 100 ml of solution in which the product to be tested was dissolved.
(§5) Tomato seedlings at a stage of two-three true leaves were transplanted into the pots thus prepared. Different tomato cultivars were adopted, having a different sensitivity to the parasite and with different growth rates. In particular, an ornamental variety (cv Microtom) was used for evaluating the final production, whose seedlings have reduced dimensions and are capable of reaching maturity of the fruit in pots and under greenhouse conditions, in about two months.
The evaluation of the product under consideration was effected by treating the pots 7 days before transplantation (according to what is indicated in the label of the commercial reference product NIMITZ® (Fluensulfone)).
The product was evaluated considering the possible phytotoxic effects that can jeopardize the development of the plant (a zero-ten scale was used wherein: zero=no symptoms, 10=plant destroyed) and the effectiveness with respect to nematodes.
(§6) The capacity of limiting the parasite was detected, at a distance of 30 and 60 days after transplanting, considering the development of the root system (wherein 100% is the development reached by the comparative healthy root) and the presence of galls on the roots. The presence of galls in the roots was estimated using the infestation scale proposed by Bridge and Page, in which the value zero corresponds to 0% of affected root and the value of 10 corresponds to 100% of infested root.
Table 2 indicates the results relating to the effectiveness of Compounds 1, 2 and 22 and Compounds CR1, CR2, CR3 on tomatoes at a dosage of 4,000 g/hectare, effecting the assessment 60 days after the transplantation.

Meloidogyne spp. [2] = assay: Nematocidal activity against Meloidogyne spp., application at the moment of transplantation (tomato in pots); format: in vivo; conditions: tomatoes, 4,000 g/hectare, 1 treatment at the moment of transplantation; for Root development: 60 days after transplantation, 100% = healthy root; for Gall index (scale 0-10) / Weight of plant: survey 60 days after transplantation
Method: as §1, §2, §3, §4, §5, §6
Determination of the Nematocidal Activity Against Meloidogyne Spp. (Application at the Moment of Transplantation)
The same experimental procedure as Example 4 was adopted for evaluating the nematocidal activity of the products under examination, except for the fact that this evaluation was effected by applying the product at the moment of transplantation.
Tables 3 and 4 indicate the results relating to the effectiveness of compounds 9, 10, 71, 75, 76 and the reference compound CR1 on tomatoes at a dose of 4,000 g/hectare effecting the survey 60 days after transplantation.

Meloidogyne spp. [3] = assay: Nematocidal activity against Meloidogyne spp., application with already cultivating crop (tomato in pots); format: in vivo; conditions: tomatoes, 4,000 g/hectare, repeated treatment after transplantation (already cultivating crop); for Root development: 60 days after transplantation, 100% = healthy root; for Gall index (scale 0-10) / Weight of plant: survey 60 days after transplantation
Method: as §1, §2, §3, §4, §5, §6
Determination of the Nematocidal Activity Against Meloidogyne Spp. (Application with Already Cultivating Crop)
The same experimental procedure as Example 4 was adopted for evaluating the nematocidal activity of the products under examination, except for the fact that this evaluation was effected by applying the product during the development of the seedlings (according to what is indicated in the label of the commercial reference product VYDATE® (Oxamil)).
Table 5 indicates the results relating to the effectiveness of compounds 1, 2, 6 and the compound CR1 on tomatoes at a dose of 4,000 g/hectare effecting the survey 60 days after transplantation.

tomatoes = assay: Phytotoxicity on tomatoes, application with already cultivating crop; format: in vivo, tomato; conditions: zero = no symptoms, 10 = plant destroyed
Method: The product was evaluated considering the possible phytotoxic effects that can jeopardize the development of the plant (a zero-ten scale was used wherein: zero=no symptoms, 10=plant destroyed) and the effectiveness with respect to nematodes. Table 6 indicates the results relating to phytotoxicity on tomatoes applying compounds 1, 2, 6, 9, 71, 75, 76 and CR1 with already cultivating crop: […]

O=S(=O)(CCC(F)=C(F)F)c1ncc(Cl)s1 [CR1, 5-chloro-2-(3,4,4-trifluoro-3-butenylsulfonyl)-thiazole, reference compound]
Root development (Meloidogyne spp. [1]): 70%
Height of plant (cm) (Meloidogyne spp. [1]): 71 cm
Gall index (scale 0-10) (Meloidogyne spp. [1]): 2.0 scale 0-10
Root development (Meloidogyne spp. [2]; Table 3 test): 60%
Gall index (scale 0-10) (Meloidogyne spp. [2]; Table 3 test): 1.5 scale 0-10
Weight of plant (Meloidogyne spp. [2]; Table 3 test): 62 g
Root development (Meloidogyne spp. [2]; Table 4 test): 80%
Gall index (scale 0-10) (Meloidogyne spp. [2]; Table 4 test): 1.0 scale 0-10
Weight of plant (Meloidogyne spp. [2]; Table 4 test): 50 g
Root development (Meloidogyne spp. [3]): 32%
Gall index (scale 0-10) (Meloidogyne spp. [3]): 1.5 scale 0-10
Weight of plant (Meloidogyne spp. [3]): 25 g
Phytotoxicity (scale 0-10) (tomatoes): 3 scale 0-10

Cc1nnc(SCCC(F)=C(F)F)s1 [CR2, 2-(3,4,4-trifluoro-3-butenylthio)-5-methyl-1,3,4-thiadiazole, reference compound]
Root development (Meloidogyne spp. [1]): 70%
Height of plant (cm) (Meloidogyne spp. [1]): 60 cm
Gall index (scale 0-10) (Meloidogyne spp. [1]): 2.0 scale 0-10

Cc1nnc(S(=O)(=O)CCC=C(F)F)s1 [CR3, 2-(4,4-difluoro-3-butenylsulfonyl)-5-methyl-1,3,4-thiadiazole, reference compound]
Root development (Meloidogyne spp. [1]): 75%
Height of plant (cm) (Meloidogyne spp. [1]): 70 cm
Gall index (scale 0-10) (Meloidogyne spp. [1]): 1.5 scale 0-10

Cc1nnc([S+]([O-])CCC(F)=C(F)F)s1 (stereo not shown) [Nr 1, 2-(3,4,4-trifluoro-3-butenylsulfinyl)-5-methyl-1,3,4-thiadiazole]
Root development (Meloidogyne spp. [1]): 95%
Height of plant (cm) (Meloidogyne spp. [1]): 75 cm
Gall index (scale 0-10) (Meloidogyne spp. [1]): 1.0 scale 0-10
Root development (Meloidogyne spp. [3]): 100%
Gall index (scale 0-10) (Meloidogyne spp. [3]): 1.0 scale 0-10
Weight of plant (Meloidogyne spp. [3]): 36 g
Phytotoxicity (scale 0-10) (tomatoes): 0 scale 0-10

Cc1nnc(S(=O)(=O)CCC(F)=C(F)F)s1 [Nr 2, 2-(3,4,4-trifluoro-3-butenylsulfonyl)-5-methyl-1,3,4-thiadiazole]
Root development (Meloidogyne spp. [1]): 95%
Height of plant (cm) (Meloidogyne spp. [1]): 76 cm
Gall index (scale 0-10) (Meloidogyne spp. [1]): 1.0 scale 0-10
Root development (Meloidogyne spp. [3]): 100%
Gall index (scale 0-10) (Meloidogyne spp. [3]): 0.0 scale 0-10
Weight of plant (Meloidogyne spp. [3]): 33 g
Phytotoxicity (scale 0-10) (tomatoes): 0 scale 0-10

CC(C)c1nnc(S(=O)(=O)CCC(F)=C(F)F)s1 [Nr 6]
Root development (Meloidogyne spp. [3]): 95%
Gall index (scale 0-10) (Meloidogyne spp. [3]): 2.0 scale 0-10
Weight of plant (Meloidogyne spp. [3]): 40 g
Phytotoxicity (scale 0-10) (tomatoes): 0 scale 0-10

CC(C)Cc1nnc([S+]([O-])CCC(F)=C(F)F)s1 (stereo not shown) [Nr 9]
Root development (Meloidogyne spp. [2]; Table 3 test): 70%
Gall index (scale 0-10) (Meloidogyne spp. [2]; Table 3 test): 2.0 scale 0-10
Weight of plant (Meloidogyne spp. [2]; Table 3 test): 116 g
Phytotoxicity (scale 0-10) (tomatoes): 0 scale 0-10

CC(C)Cc1nnc(S(=O)(=O)CCC(F)=C(F)F)s1 [Nr 10]
Root development (Meloidogyne spp. [2]; Table 3 test): 75%
Gall index (scale 0-10) (Meloidogyne spp. [2]; Table 3 test): 2.0 scale 0-10
Weight of plant (Meloidogyne spp. [2]; Table 3 test): 88 g

O=S(=O)(CCC(F)=C(F)F)c1nnc(Cl)s1 [Nr 22, 2-(3,4,4-trifluoro-3-butenylsulfonyl)-5-chloro-1,3,4-thiadiazole]
Root development (Meloidogyne spp. [1]): 90%
Height of plant (cm) (Meloidogyne spp. [1]): 73 cm
Gall index (scale 0-10) (Meloidogyne spp. [1]): 1.5 scale 0-10

CC1(C)CC([S+]([O-])CCC(F)=C(F)F)=NO1 (stereo not shown) [Nr 75]
Root development (Meloidogyne spp. [2]; Table 4 test): 100%
Gall index (scale 0-10) (Meloidogyne spp. [2]; Table 4 test): 1.0 scale 0-10
Weight of plant (Meloidogyne spp. [2]; Table 4 test): 50 g
Phytotoxicity (scale 0-10) (tomatoes): 0 scale 0-10

CC1(C)CC(S(=O)(=O)CCC(F)=C(F)F)=NO1 [Nr 76]
Root development (Meloidogyne spp. [2]; Table 4 test): 100%
Gall index (scale 0-10) (Meloidogyne spp. [2]; Table 4 test): 1.5 scale 0-10
Weight of plant (Meloidogyne spp. [2]; Table 4 test): 51 g
Phytotoxicity (scale 0-10) (tomatoes): 0 scale 0-10
